According to US6689773B2, “Uracil substituted phenyl sulfamoyl carboxamides” (BASF Aktiengesellschaft, priority 2000, dated 2004):

Assays:
Format in all cases: in vivo
[1] = system: ABUTH, Velvetleaf, Abutilon theophrasti, Medic.; test: Postemergence herbicidal evaluation (Example 147); settings: rating scale 0-9, two to three weeks after treatment
Protocol: (§1) Seedling plants were grown in jiffy flats for about two weeks. The test compounds were dispersed in 80/20 acetone/water mixtures containing 1.0% SUN-IT®II, a methylated seed oil, in sufficient quantities to provide the equivalent of about 0.016 to 0.032 kg per hectare of active compound when applied to the plants through a spray nozzle operating at 40 psi for a predetermined time. After spraying, the plants were placed on greenhouse benches and were cared for in accordance with conventional greenhouse procedures. Approximately two to three weeks after treatment, the seedling plants were examined and rated according to the rating scale (0-9) set forth below. Where more than one test is involved for a given compound, the data are averaged. [table] The scale is based upon a visual observation of plant stand, vigor, malformation, size, chlorosis and overall plant appearance as compared with a control. Plant species employed in these evaluations are reported by header abbreviation, common name and scientific name. [table]

[2] = system: ALOMY, Blackgrass, Alopecurus myosuroides; test: Postemergence herbicidal evaluation (Example 147); settings: rating scale 0-9, two to three weeks after treatment
Protocol: as §1

[3] = system: AMBEL, Ragweed, Common, Ambrosia artemiisifolia, L.; test: Postemergence herbicidal evaluation (Example 147); settings: rating scale 0-9, two to three weeks after treatment
Protocol: as §1

[4] = system: CHEAL, Lambsquarters, Chenopodium album, L. Common; test: Postemergence herbicidal evaluation (Example 147); settings: rating scale 0-9, two to three weeks after treatment
Protocol: as §1

[5] = system: DIGSA, Crabgrass, (Hairy) L, Digitaria sanguinalis, (L)Scop; test: Postemergence herbicidal evaluation (Example 147); settings: rating scale 0-9, two to three weeks after treatment
Protocol: as §1

[6] = system: ECHCG, Barnyardgrass, Echinochloa crusgalli, (L.)Beau; test: Postemergence herbicidal evaluation (Example 147); settings: rating scale 0-9, two to three weeks after treatment
Protocol: as §1

[7] = system: GLXMA, Soybean, Glycine max, (L.) Merr.; test: Postemergence herbicidal evaluation (Example 147); settings: rating scale 0-9, two to three weeks after treatment
Protocol: as §1

[8] = system: IPOHE, Morningglory, Ivyleaf, Ipomoea hederacea, (L)Jacq.; test: Postemergence herbicidal evaluation (Example 147); settings: rating scale 0-9, two to three weeks after treatment
Protocol: as §1

[9] = system: SETVI, Green foxtail, Setaria viridis, (L.)Beau; test: Postemergence herbicidal evaluation (Example 147); settings: rating scale 0-9, two to three weeks after treatment
Protocol: as §1

[10] = system: TRZAW, Winter wheat, Tritium Aestivum, L. (Winter); test: Postemergence herbicidal evaluation (Example 147); settings: rating scale 0-9, two to three weeks after treatment
Protocol: as §1

[11] = system: ZEAMX, Field corn, Zea mays L.; test: Postemergence herbicidal evaluation (Example 147); settings: rating scale 0-9, two to three weeks after treatment
Protocol: as §1

[12] = system: ABUTH, Velvetleaf, Abutilon theophrasti, Medic.; test: Preemergence herbicidal evaluation (Example 148); settings: rating scale 0-9, two to four weeks after treatment
Protocol: (§2) The scale is based upon a visual observation of plant stand, vigor, malformation, size, chlorosis and overall plant appearance as compared with a control.
(§3) The herbicidal activity of the compounds of the present invention was evaluated by the following tests wherein the seeds of a variety of monocotyledonous and dicotyledonous plants were separately mixed with potting soil and planted on top of approximately one inch of soil in separate pint cups. After planting, the cups were sprayed with the selected aqueous acetone solution containing test compound in sufficient quantity to provide the equivalent of about 0.125 to 0.250 kg per hectare of test compound per cup. The treated cups were then placed on greenhouse benches, watered and cared for in accordance with conventional greenhouse procedures. From two to four weeks after treatment, the tests were terminated and each cup was examined and rated according to the rating system provided in Example 94. When more than one test was performed for a given compound, the data were averaged.

[13] = system: ALOMY, Blackgrass, Alopecurus myosuroides; test: Preemergence herbicidal evaluation (Example 148); settings: rating scale 0-9, two to four weeks after treatment
Protocol: as §2, §3

[14] = system: AMBEL, Ragweed, Common, Ambrosia artemiisifolia, L.; test: Preemergence herbicidal evaluation (Example 148); settings: rating scale 0-9, two to four weeks after treatment
Protocol: as §2, §3

[15] = system: CHEAL, Lambsquarters, Chenopodium album, L. Common; test: Preemergence herbicidal evaluation (Example 148); settings: rating scale 0-9, two to four weeks after treatment
Protocol: as §2, §3

[16] = system: DIGSA, Crabgrass, (Hairy) L, Digitaria sanguinalis, (L)Scop; test: Preemergence herbicidal evaluation (Example 148); settings: rating scale 0-9, two to four weeks after treatment
Protocol: as §2, §3

[17] = system: ECHCG, Barnyardgrass, Echinochloa crusgalli, (L.)Beau; test: Preemergence herbicidal evaluation (Example 148); settings: rating scale 0-9, two to four weeks after treatment
Protocol: as §2, §3

[18] = system: GLXMA, Soybean, Glycine max, (L.) Merr.; test: Preemergence herbicidal evaluation (Example 148); settings: rating scale 0-9, two to four weeks after treatment
Protocol: as §2, §3

[19] = system: IPOHE, Morningglory, Ivyleaf, Ipomoea hederacea, (L)Jacq.; test: Preemergence herbicidal evaluation (Example 148); settings: rating scale 0-9, two to four weeks after treatment
Protocol: as §2, §3

[20] = system: SETVI, Green foxtail, Setaria viridis, (L.)Beau; test: Preemergence herbicidal evaluation (Example 148); settings: rating scale 0-9, two to four weeks after treatment
Protocol: as §2, §3

[21] = system: TRZAW, Winter wheat, Tritium Aestivum, L. (Winter); test: Preemergence herbicidal evaluation (Example 148); settings: rating scale 0-9, two to four weeks after treatment
Protocol: as §2, §3

[22] = system: XANST, Cocklebur, Xanthium strumariam; test: Preemergence herbicidal evaluation (Example 148); settings: rating scale 0-9, two to four weeks after treatment
Protocol: as §2, §3

[23] = system: ZEAMX, Field corn, Zea mays L.; test: Preemergence herbicidal evaluation (Example 148); settings: rating scale 0-9, two to four weeks after treatment
Protocol: as §2, §3

[24] = system: XANST, Cocklebur, Xanthium strumariam; test: Postemergence herbicidal evaluation (Example 147); settings: rating scale 0-9, two to three weeks after treatment
Protocol: as §1

## COc1cccc(CN(C)S(=O)(=O)NC(=O)c2cc(-n3c(=O)cc(C(F)(F)F)n(C)c3=O)c(F)cc2Cl)c1 [Example 70]
[1]; rate 0.016 kg/ha
  Postemergence herbicidal rating ABUTH: 9.0
[1]; rate 0.032 kg/ha
  Postemergence herbicidal rating ABUTH: 9.0
[2]; rate 0.016 kg/ha
  Postemergence herbicidal rating ALMOY: 1.0
[2]; rate 0.032 kg/ha
  Postemergence herbicidal rating ALMOY: 1.0
[3]; rate 0.016 kg/ha
  Postemergence herbicidal rating AMBEL: 5.0
[3]; rate 0.032 kg/ha
  Postemergence herbicidal rating AMBEL: 7.0
[4]; rate 0.016 kg/ha
  Postemergence herbicidal rating CHEAL: 6.0
[4]; rate 0.032 kg/ha
  Postemergence herbicidal rating CHEAL: 7.0
[5]; rate 0.016 kg/ha
  Postemergence herbicidal rating DIGSA: 2.0
[5]; rate 0.032 kg/ha
  Postemergence herbicidal rating DIGSA: 3.0
[6]; rate 0.016 kg/ha
  Postemergence herbicidal rating ECHCG: 4.0
[6]; rate 0.032 kg/ha
  Postemergence herbicidal rating ECHCG: 8.0
[7]; rate 0.016 kg/ha
  Postemergence herbicidal rating GLXMA: 6.5
[7]; rate 0.032 kg/ha
  Postemergence herbicidal rating GLXMA: 7.5
[8]; rate 0.016 kg/ha
  Postemergence herbicidal rating IPOHE: 9.0
[8]; rate 0.032 kg/ha
  Postemergence herbicidal rating IPOHE: 9.0
[9]; rate 0.016 kg/ha
  Postemergence herbicidal rating SETVI: 4.0
[9]; rate 0.032 kg/ha
  Postemergence herbicidal rating SETVI: 5.0
[10]; rate 0.016 kg/ha
  Postemergence herbicidal rating TRZAW: 4.5
[10]; rate 0.032 kg/ha
  Postemergence herbicidal rating TRZAW: 5.0
[11]; rate 0.016 kg/ha
  Postemergence herbicidal rating ZEAMX: 7.0
[11]; rate 0.032 kg/ha
  Postemergence herbicidal rating ZEAMX: 7.0
[12]; rate 0.125 kg/ha
  Preemergence herbicidal rating ABUTH: 9.0
[12]; rate 0.25 kg/ha
  Preemergence herbicidal rating ABUTH: 9.0
[13]; rate 0.125 kg/ha
  Preemergence herbicidal rating ALMOY: 0.0
[13]; rate 0.25 kg/ha
  Preemergence herbicidal rating ALMOY: 0.0
[14]; rate 0.125 kg/ha
  Preemergence herbicidal rating AMBEL: 9.0
[14]; rate 0.25 kg/ha
  Preemergence herbicidal rating AMBEL: 9.0
[15]; rate 0.125 kg/ha
  Preemergence herbicidal rating CHEAL: 8.0
[15]; rate 0.25 kg/ha
  Preemergence herbicidal rating CHEAL: 9.0
[16]; rate 0.125 kg/ha
  Preemergence herbicidal rating DIGSA: 2.0
[16]; rate 0.25 kg/ha
  Preemergence herbicidal rating DIGSA: 5.0
[17]; rate 0.125 kg/ha
  Preemergence herbicidal rating ECHCG: 2.0
[17]; rate 0.25 kg/ha
  Preemergence herbicidal rating ECHCG: 7.0
[18]; rate 0.125 kg/ha
  Preemergence herbicidal rating GLXMA: 1.0
[18]; rate 0.25 kg/ha
  Preemergence herbicidal rating GLXMA: 3.0
[19]; rate 0.125 kg/ha
  Preemergence herbicidal rating IPOHE: 9.0
[19]; rate 0.25 kg/ha
  Preemergence herbicidal rating IPOHE: 9.0
[20]; rate 0.125 kg/ha
  Preemergence herbicidal rating SETVI: 3.0
[20]; rate 0.25 kg/ha
  Preemergence herbicidal rating SETVI: 5.0
[21]; rate 0.125 kg/ha
  Preemergence herbicidal rating TRZAW: 0.0
[21]; rate 0.25 kg/ha
  Preemergence herbicidal rating TRZAW: 1.0
[22]; rate 0.125 kg/ha
  Preemergence herbicidal rating XANST: 8.0
[22]; rate 0.25 kg/ha
  Preemergence herbicidal rating XANST: 9.0
[23]; rate 0.125 kg/ha
  Preemergence herbicidal rating ZEAMX: 0.0
[23]; rate 0.25 kg/ha
  Preemergence herbicidal rating ZEAMX: 0.0

## CCN(C)S(=O)(=O)NC(=O)c1cc(-n2c(=O)cc(C(F)(F)F)n(C)c2=O)c(F)cc1Cl [Example 66]
[1]; rate 0.016 kg/ha
  Postemergence herbicidal rating ABUTH: 9.0
[1]; rate 0.032 kg/ha
  Postemergence herbicidal rating ABUTH: 9.0
[2]; rate 0.016 kg/ha
  Postemergence herbicidal rating ALMOY: 1.0
[2]; rate 0.032 kg/ha
  Postemergence herbicidal rating ALMOY: 2.0
[3]; rate 0.016 kg/ha
  Postemergence herbicidal rating AMBEL: 9.0
[3]; rate 0.032 kg/ha
  Postemergence herbicidal rating AMBEL: 9.0
[4]; rate 0.016 kg/ha
  Postemergence herbicidal rating CHEAL: 8.0
[4]; rate 0.032 kg/ha
  Postemergence herbicidal rating CHEAL: 9.0
[5]; rate 0.016 kg/ha
  Postemergence herbicidal rating DIGSA: 5.0
[5]; rate 0.032 kg/ha
  Postemergence herbicidal rating DIGSA: 6.0
[6]; rate 0.016 kg/ha
  Postemergence herbicidal rating ECHCG: 8.0
[6]; rate 0.032 kg/ha
  Postemergence herbicidal rating ECHCG: 8.0
[7]; rate 0.016 kg/ha
  Postemergence herbicidal rating GLXMA: 8.0
[7]; rate 0.032 kg/ha
  Postemergence herbicidal rating GLXMA: 9.0
[8]; rate 0.016 kg/ha
  Postemergence herbicidal rating IPOHE: 9.0
[8]; rate 0.032 kg/ha
  Postemergence herbicidal rating IPOHE: 9.0
[9]; rate 0.016 kg/ha
  Postemergence herbicidal rating SETVI: 8.0
[9]; rate 0.032 kg/ha
  Postemergence herbicidal rating SETVI: 9.0
[10]; rate 0.016 kg/ha
  Postemergence herbicidal rating TRZAW: 5.0
[10]; rate 0.032 kg/ha
  Postemergence herbicidal rating TRZAW: 6.5
[24]; rate 0.016 kg/ha
  Postemergence herbicidal rating XANST: 9.0
[24]; rate 0.032 kg/ha
  Postemergence herbicidal rating XANST: 9.0
[11]; rate 0.016 kg/ha
  Postemergence herbicidal rating ZEAMX: 7.0
[11]; rate 0.032 kg/ha
  Postemergence herbicidal rating ZEAMX: 7.5
[12]; rate 0.125 kg/ha
  Preemergence herbicidal rating ABUTH: 9.0
[12]; rate 0.25 kg/ha
  Preemergence herbicidal rating ABUTH: 9.0
[13]; rate 0.125 kg/ha
  Preemergence herbicidal rating ALMOY: 0.0
[13]; rate 0.25 kg/ha
  Preemergence herbicidal rating ALMOY: 2.0
[14]; rate 0.125 kg/ha
  Preemergence herbicidal rating AMBEL: 9.0
[14]; rate 0.25 kg/ha
  Preemergence herbicidal rating AMBEL: 9.0
[15]; rate 0.125 kg/ha
  Preemergence herbicidal rating CHEAL: 9.0
[15]; rate 0.25 kg/ha
  Preemergence herbicidal rating CHEAL: 9.0
[16]; rate 0.125 kg/ha
  Preemergence herbicidal rating DIGSA: 4.0
[16]; rate 0.25 kg/ha
  Preemergence herbicidal rating DIGSA: 8.0
[17]; rate 0.125 kg/ha
  Preemergence herbicidal rating ECHCG: 4.0
[17]; rate 0.25 kg/ha
  Preemergence herbicidal rating ECHCG: 8.0
[18]; rate 0.125 kg/ha
  Preemergence herbicidal rating GLXMA: 0.0
[19]; rate 0.125 kg/ha
  Preemergence herbicidal rating IPOHE: 9.0
[19]; rate 0.25 kg/ha
  Preemergence herbicidal rating IPOHE: 9.0
[20]; rate 0.125 kg/ha
  Preemergence herbicidal rating SETVI: 4.0
[20]; rate 0.25 kg/ha
  Preemergence herbicidal rating SETVI: 6.0
[21]; rate 0.125 kg/ha
  Preemergence herbicidal rating TRZAW: 1.0
[21]; rate 0.25 kg/ha
  Preemergence herbicidal rating TRZAW: 1.0
[23]; rate 0.125 kg/ha
  Preemergence herbicidal rating ZEAMX: 1.0
[23]; rate 0.25 kg/ha
  Preemergence herbicidal rating ZEAMX: 2.0
